Earlier results on 2 substances are cited in patent publication US9481856B2, “Pharmaceutical formulations comprising stabilized polysaccharides and source of hydrogen peroxide” (Bausch & Lomb Incorporated, priority 2008, dated 2016).

Series [1] concerns sensitive tissues of the eye.

For benzalkonium chloride [BAK], the concentration causing necrosis in series [1] is on record as 0.05-0.1%. For “α-4-{tris(2hydroxyethyl)ammonium-2-butenyl} poly {1-dimethylammonium-2-butenyl}-ω-tris(2-hydroxyethyl)ammonium chloride [polyquaternium-1]”, in the series on goblet cell, the “effect on goblet cell density” value is “significantly to decrease goblet cell density”.
